# Test results as given in PubChem BioAssay (NCI).
#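 96-well plates; 48 h exposure; 5 concentrations. Endpoints by linear interpolation between flanking doses. Not reached: highest tested concentration assigned. TGI is the concentration that stops growth completely.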
# Experiments:
# Experiment in all cases: NCI tumour cell line growth inhibition, 48 h
# HOP-92 NSCLC = system: HOP-92 NSCLC
# TK-10 renal = system: TK-10 renal
# SNB-78 CNS = system: SNB-78 CNS
# HT29 colon = system: HT29 colon
# HCT-116 colon = system: HCT-116 colon
# NCI-H522 lung = system: NCI-H522 lung
# SK-OV-3 ovarian = system: SK-OV-3 ovarian
# SN12C renal = system: SN12C renal
# DMS 273 small cell lung = system: DMS 273 small cell lung
# CCRF-CEM leukemia = system: CCRF-CEM leukemia
# SK-MEL-2 melanoma = system: SK-MEL-2 melanoma
# SF-539 CNS = system: SF-539 CNS
# M19-MEL melanoma = system: M19-MEL melanoma
# HCT-15 colon = system: HCT-15 colon
# M14 melanoma = system: M14 melanoma
# NCI-H460 lung = system: NCI-H460 lung
# NCI-H23 lung = system: NCI-H23 lung
# SK-MEL-5 melanoma = system: SK-MEL-5 melanoma
# 786-0 renal = system: 786-0 renal
# KM20L2 colon = system: KM20L2 colon
# LXFL 529 NSCLC = system: LXFL 529 NSCLC
# MOLT-4 leukemia = system: MOLT-4 leukemia
# HCC-2998 colon = system: HCC-2998 colon
# RXF-631 renal = system: RXF-631 renal
# SF-268 CNS = system: SF-268 CNS
# OVCAR-8 ovarian = system: OVCAR-8 ovarian
# UACC-257 melanoma = system: UACC-257 melanoma
# EKVX NSCLC = system: EKVX NSCLC
# UACC-62 melanoma = system: UACC-62 melanoma
# XF 498 CNS = system: XF 498 CNS
# ACHN renal = system: ACHN renal
# SNB-19 CNS = system: SNB-19 CNS
# HOP-18 NSCLC = system: HOP-18 NSCLC
# DLD-1 colon = system: DLD-1 colon
# SNB-75 CNS = system: SNB-75 CNS
# KM12 colon = system: KM12 colon
# OVCAR-4 ovarian = system: OVCAR-4 ovarian
# RXF 393 renal = system: RXF 393 renal
# CAKI-1 renal = system: CAKI-1 renal
# NCI-H226 lung = system: NCI-H226 lung
# OVCAR-3 ovarian = system: OVCAR-3 ovarian
# K-562 leukemia = system: K-562 leukemia
# HOP-62 NSCLC = system: HOP-62 NSCLC
# COLO 205 colon = system: COLO 205 colon
# MALME-3M melanoma = system: MALME-3M melanoma
# DMS 114 small cell lung = system: DMS 114 small cell lung
# LOX IMVI melanoma = system: LOX IMVI melanoma
# IGROV1 ovarian = system: IGROV1 ovarian
# OVCAR-5 ovarian = system: OVCAR-5 ovarian
# HL-60(TB) leukemia = system: HL-60(TB) leukemia
# UO-31 renal = system: UO-31 renal
# SF-295 CNS = system: SF-295 CNS
# A549 NSCLC = system: A549 NSCLC
# RPMI-8226 leukemia = system: RPMI-8226 leukemia
# SW-620 colon = system: SW-620 colon
# SR leukemia = system: SR leukemia
# U251 CNS = system: U251 CNS
# A498 renal = system: A498 renal
# SK-MEL-28 melanoma = system: SK-MEL-28 melanoma
# P388 leukemia = system: P388 leukemia
# BT-549 breast = system: BT-549 breast
# HS 578T breast = system: HS 578T breast
# SN12K1 renal = system: SN12K1 renal
# P388/ADR leukemia = system: P388/ADR leukemia
# MCF7 breast = system: MCF7 breast
# DU-145 prostate = system: DU-145 prostate
# NCI/ADR-RES ovarian = system: NCI/ADR-RES ovarian
# MDA-MB-435 = system: MDA-MB-435
# PC-3 prostate = system: PC-3 prostate
# T-47D breast = system: T-47D breast
# MDA-MB-231 breast = system: MDA-MB-231 breast
smiles,measurement,setting,value
CC(C)N(C(=O)C12C3C4C5(C#N)C3C1(C#N)C5C42I)C(C)C (configuration not stated),TGI,HOP-92 NSCLC,> 0.1 mM
same,TGI,TK-10 renal,> 0.1 mM
same,TGI,SNB-78 CNS,> 0.1 mM
same,TGI,HT29 colon,> 0.1 mM
same,TGI,HCT-116 colon,0.0315 mM
same,TGI,NCI-H522 lung,> 0.1 mM
same,TGI,SK-OV-3 ovarian,> 0.1 mM
same,TGI,SN12C renal,> 0.1 mM
same,TGI,DMS 273 small cell lung,> 0.0609 mM
same,TGI,CCRF-CEM leukemia,> 0.0597 mM
same,TGI,SK-MEL-2 melanoma,> 0.1 mM
same,TGI,SF-539 CNS,> 0.1 mM
same,TGI,M19-MEL melanoma,> 0.1 mM
same,TGI,HCT-15 colon,> 0.1 mM
same,TGI,M14 melanoma,> 0.1 mM
same,TGI,NCI-H460 lung,> 0.1 mM
same,TGI,NCI-H23 lung,> 0.1 mM
same,TGI,SK-MEL-5 melanoma,> 0.1 mM
same,TGI,786-0 renal,> 0.1 mM
same,TGI,KM20L2 colon,> 0.1 mM
same,TGI,LXFL 529 NSCLC,> 0.1 mM
same,TGI,MOLT-4 leukemia,> 0.1 mM
same,TGI,HCC-2998 colon,> 0.1 mM
same,TGI,RXF-631 renal,> 0.1 mM
same,TGI,SF-268 CNS,> 0.1 mM
same,TGI,OVCAR-8 ovarian,> 0.1 mM
same,TGI,UACC-257 melanoma,> 0.1 mM
same,TGI,EKVX NSCLC,> 0.1 mM
same,TGI,UACC-62 melanoma,> 0.1 mM
same,TGI,XF 498 CNS,> 0.1 mM
same,TGI,ACHN renal,> 0.1 mM
same,TGI,SNB-19 CNS,> 0.1 mM
same,TGI,HOP-18 NSCLC,> 0.1 mM
same,TGI,DLD-1 colon,> 0.0609 mM
same,TGI,SNB-75 CNS,> 0.1 mM
same,TGI,KM12 colon,> 0.1 mM
same,TGI,OVCAR-4 ovarian,> 0.1 mM
same,TGI,RXF 393 renal,> 0.1 mM
same,TGI,CAKI-1 renal,> 0.1 mM
same,TGI,NCI-H226 lung,> 0.1 mM
same,TGI,OVCAR-3 ovarian,> 0.1 mM
same,TGI,K-562 leukemia,> 0.0594 mM
same,TGI,HOP-62 NSCLC,> 0.1 mM
same,TGI,COLO 205 colon,> 0.0651 mM
same,TGI,MALME-3M melanoma,> 0.1 mM
same,TGI,DMS 114 small cell lung,> 0.0645 mM
same,TGI,LOX IMVI melanoma,> 0.0788 mM
same,TGI,IGROV1 ovarian,> 0.1 mM
same,TGI,OVCAR-5 ovarian,> 0.1 mM
same,TGI,HL-60(TB) leukemia,> 0.0556 mM
same,TGI,UO-31 renal,> 0.1 mM
same,TGI,SF-295 CNS,> 0.1 mM
same,TGI,A549 NSCLC,> 0.1 mM
same,TGI,RPMI-8226 leukemia,> 0.0666 mM
same,TGI,SW-620 colon,> 0.066 mM
same,TGI,SR leukemia,0.0382 mM
same,TGI,U251 CNS,> 0.1 mM
same,TGI,A498 renal,> 0.1 mM
same,TGI,SK-MEL-28 melanoma,> 0.1 mM
CC(O)CCC(=O)c1ccoc1 (configuration not stated),TGI,HOP-92 NSCLC,8 mM
same,TGI,TK-10 renal,> 10 mM
same,TGI,SNB-78 CNS,9.99 mM
same,TGI,P388 leukemia,> 10 mM
same,TGI,HT29 colon,> 10 mM
same,TGI,BT-549 breast,> 10 mM
same,TGI,HS 578T breast,> 10 mM
same,TGI,SN12K1 renal,> 10 mM
same,TGI,HCT-116 colon,> 8.75 mM
same,TGI,NCI-H522 lung,8.27 mM
same,TGI,SK-OV-3 ovarian,> 7.94 mM
same,TGI,SN12C renal,9.93 mM
same,TGI,P388/ADR leukemia,> 10 mM
same,TGI,DMS 273 small cell lung,> 9.14 mM
same,TGI,CCRF-CEM leukemia,> 9.36 mM
same,TGI,SK-MEL-2 melanoma,> 8.11 mM
same,TGI,SF-539 CNS,> 10 mM
same,TGI,M19-MEL melanoma,> 10 mM
same,TGI,HCT-15 colon,> 10 mM
same,TGI,M14 melanoma,> 10 mM
same,TGI,MCF7 breast,> 10 mM
same,TGI,DU-145 prostate,> 10 mM
same,TGI,NCI-H460 lung,> 10 mM
same,TGI,NCI-H23 lung,> 10 mM
same,TGI,SK-MEL-5 melanoma,8.03 mM
same,TGI,786-0 renal,> 10 mM
same,TGI,KM20L2 colon,> 10 mM
same,TGI,MOLT-4 leukemia,> 9.43 mM
same,TGI,HCC-2998 colon,> 10 mM
same,TGI,SF-268 CNS,> 10 mM
same,TGI,OVCAR-8 ovarian,> 10 mM
same,TGI,NCI/ADR-RES ovarian,> 9.75 mM
same,TGI,UACC-257 melanoma,> 10 mM
same,TGI,EKVX NSCLC,> 9.74 mM
same,TGI,UACC-62 melanoma,> 10 mM
same,TGI,ACHN renal,> 10 mM
same,TGI,SNB-19 CNS,> 10 mM
same,TGI,HOP-18 NSCLC,> 10 mM
same,TGI,DLD-1 colon,> 10 mM
same,TGI,SNB-75 CNS,9.65 mM
same,TGI,KM12 colon,> 8.11 mM
same,TGI,OVCAR-4 ovarian,> 7.94 mM
same,TGI,RXF 393 renal,> 8.31 mM
same,TGI,CAKI-1 renal,3.93 mM
same,TGI,NCI-H226 lung,> 10 mM
same,TGI,OVCAR-3 ovarian,9.96 mM
same,TGI,K-562 leukemia,> 10 mM
same,TGI,HOP-62 NSCLC,> 10 mM
same,TGI,MDA-MB-435,> 10 mM
same,TGI,PC-3 prostate,> 10 mM
same,TGI,COLO 205 colon,> 8.25 mM
same,TGI,T-47D breast,> 10 mM
same,TGI,MDA-MB-231 breast,> 10 mM
same,TGI,MALME-3M melanoma,> 8.38 mM
same,TGI,DMS 114 small cell lung,> 9.67 mM
same,TGI,LOX IMVI melanoma,> 10 mM
same,TGI,IGROV1 ovarian,> 10 mM
same,TGI,OVCAR-5 ovarian,> 10 mM
same,TGI,HL-60(TB) leukemia,7.89 mM
same,TGI,UO-31 renal,9.12 mM
same,TGI,SF-295 CNS,> 10 mM
same,TGI,A549 NSCLC,> 7.45 mM
same,TGI,RPMI-8226 leukemia,7.9 mM
same,TGI,SW-620 colon,> 10 mM
same,TGI,SR leukemia,> 10 mM
same,TGI,U251 CNS,> 10 mM
same,TGI,A498 renal,9.94 mM
same,TGI,SK-MEL-28 melanoma,> 8.38 mM
